Patent US6943191B1, “Disubstituted lavendustin A analogs and pharmaceutical composition comprising the analogs” (The United States of America as represented by the …, priority 1998, dated 2005)
Like-named read-outs stand apart in the source and are kept apart here.

Assays:
p210^bcr-abl = molecular target: T1, p210^bcr-abl (Homo sapiens, UniProt P00519); assay: Inhibition of in vitro auto-phosphorylation of p210^bcr-abl, immune-complex kinase assay; format: biochemical; conditions: immune complex kinase assay, 3 experiments, read-out: Enzyme Assays IC50 (μM) p210bcl-abl in vitro phosphorylation
T1 construct: immune complexes containing ^32P-labeled p210^bcr-abl were collected on protein Sepharose beads; BCR (N-terminal part of the breakpoint cluster region protein, natural fusion partner); endogenous in cells; host or cells: K562 cells (lysate, immunoprecipitated on Protein A-Sepharose); the other entry of the earlier key: BCR (P11274, Breakpoint cluster region protein)
T1 sequence (P00519 with tags, fused parts or gaps): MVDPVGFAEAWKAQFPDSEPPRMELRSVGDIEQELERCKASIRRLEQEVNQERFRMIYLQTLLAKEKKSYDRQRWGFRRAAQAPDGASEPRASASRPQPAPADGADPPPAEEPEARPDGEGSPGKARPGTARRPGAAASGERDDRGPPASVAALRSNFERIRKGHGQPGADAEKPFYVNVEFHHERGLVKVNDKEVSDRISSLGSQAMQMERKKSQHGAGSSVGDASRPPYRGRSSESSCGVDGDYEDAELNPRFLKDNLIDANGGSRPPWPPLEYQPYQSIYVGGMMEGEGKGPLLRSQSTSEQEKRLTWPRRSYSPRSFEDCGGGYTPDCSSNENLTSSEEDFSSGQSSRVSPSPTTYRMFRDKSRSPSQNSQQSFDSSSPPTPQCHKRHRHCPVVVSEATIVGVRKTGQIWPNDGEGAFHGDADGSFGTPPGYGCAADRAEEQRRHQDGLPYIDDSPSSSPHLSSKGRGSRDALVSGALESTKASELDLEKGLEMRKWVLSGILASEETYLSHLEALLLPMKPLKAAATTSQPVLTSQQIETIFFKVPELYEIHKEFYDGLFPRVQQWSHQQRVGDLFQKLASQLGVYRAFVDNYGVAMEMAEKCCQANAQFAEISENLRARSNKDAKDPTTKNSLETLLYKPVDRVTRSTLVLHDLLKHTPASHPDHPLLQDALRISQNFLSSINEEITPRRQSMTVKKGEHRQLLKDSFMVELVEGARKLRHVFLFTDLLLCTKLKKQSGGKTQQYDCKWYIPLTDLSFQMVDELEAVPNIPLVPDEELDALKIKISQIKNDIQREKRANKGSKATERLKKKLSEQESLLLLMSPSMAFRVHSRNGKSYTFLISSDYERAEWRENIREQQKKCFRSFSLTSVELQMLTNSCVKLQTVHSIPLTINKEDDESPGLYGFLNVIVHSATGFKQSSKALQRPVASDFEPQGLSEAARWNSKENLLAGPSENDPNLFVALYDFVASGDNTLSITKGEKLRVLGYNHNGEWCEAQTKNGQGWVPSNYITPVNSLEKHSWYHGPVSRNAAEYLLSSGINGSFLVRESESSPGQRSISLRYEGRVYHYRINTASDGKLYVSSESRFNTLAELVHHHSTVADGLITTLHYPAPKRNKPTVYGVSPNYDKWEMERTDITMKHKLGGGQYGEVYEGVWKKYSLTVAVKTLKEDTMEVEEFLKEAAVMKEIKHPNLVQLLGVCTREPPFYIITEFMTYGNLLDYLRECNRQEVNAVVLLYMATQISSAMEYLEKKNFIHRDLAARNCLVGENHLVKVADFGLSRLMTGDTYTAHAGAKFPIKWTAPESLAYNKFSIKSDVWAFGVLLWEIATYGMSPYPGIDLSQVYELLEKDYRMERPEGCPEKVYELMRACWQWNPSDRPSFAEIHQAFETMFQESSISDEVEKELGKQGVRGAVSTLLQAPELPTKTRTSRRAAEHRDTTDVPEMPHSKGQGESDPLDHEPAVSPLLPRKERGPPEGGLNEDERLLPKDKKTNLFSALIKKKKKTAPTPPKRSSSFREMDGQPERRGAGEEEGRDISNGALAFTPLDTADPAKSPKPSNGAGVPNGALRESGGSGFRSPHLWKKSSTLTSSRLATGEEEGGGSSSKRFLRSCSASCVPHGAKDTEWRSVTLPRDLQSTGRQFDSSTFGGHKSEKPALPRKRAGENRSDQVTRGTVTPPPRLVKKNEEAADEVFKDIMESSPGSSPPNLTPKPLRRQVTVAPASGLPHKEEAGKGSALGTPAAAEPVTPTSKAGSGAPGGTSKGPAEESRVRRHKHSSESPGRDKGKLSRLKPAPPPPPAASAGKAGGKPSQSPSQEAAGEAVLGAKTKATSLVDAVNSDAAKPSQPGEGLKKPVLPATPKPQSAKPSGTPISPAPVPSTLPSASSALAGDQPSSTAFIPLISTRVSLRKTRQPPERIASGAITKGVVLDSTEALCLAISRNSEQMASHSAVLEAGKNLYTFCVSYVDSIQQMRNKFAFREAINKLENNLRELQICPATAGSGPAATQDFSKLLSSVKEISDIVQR
Outline: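 p210^bcr-abl immunoprecipitated from K562 cell lysates, then incubated with compounds in 20 mM PIPES (pH 7.0)–20 mM MnCl2. Autophosphorylation started with […], 20 min at 30 °C, read by 4-20% SDS-PAGE and autoradiography.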

[1] = test system: panel of approximately 60 different human tumor cell lines; assay: National Cancer Institute drug screen, mean-graph parameters; format: cell-based; conditions: mean over cell line panel, two days exposure; for GI50: Homo sapiens, 48 h, read-out: Tumor Cell Mean log GI50 (converted)
Outline: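 About 60 human tumour cell lines in eight histology subpanels were exposed continuously to a concentration range for two days. GI50 (50% growth decrease versus untreated control), TGI (cell number equal to start) and LC50 (50% reduction versus start) were derived per cell line and summarised as mean-graph negative log10 values.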

| Structure (SMILES) | IC50 (p210^bcr-abl; Table 8, mean+S.E.) | IC50 (p210^bcr-abl; Table 10, mean ± S.E.) | Tumor Cell Mean log GI50 ([1]; Table 8) | Tumor Cell Mean log TGI ([1]; Table 8) | Tumor Cell Mean log TGI ([1]; Table 10) | further results |
| --- | --- | --- | --- | --- | --- | --- |
| CC(C)C(OC(=O)c1ccc(NCC2=CC(=O)C=CC2=O)cc1)C(C)C [COOCH[CH(CH3)2]2 / H / 2,5-quinoyl] |  |  |  |  |  | IC50 (p210^bcr-abl; Table 9, mean ± S.E.): 34 ± 9.02 µM; Tumor Cell Mean log GI50 ([1]; Table 9): −5.25; Tumor Cell Mean log TGI ([1]; Table 9): −4.78 |
| COC(=O)c1ccc(C=Cc2cc(O)ccc2O)cc1 [COOCH3 / 2,5-dihydoxyphenyl / CH═CH / H] |  | 19.9 ± 9.94 µM |  |  | −4.81 | GI50 ([1]; Table 10): 3.31 µM |
| COC(=O)c1ccc(/C=C/C2=CC(=O)C=CC2=O)cc1 [COOCH3 / 2,5-quinoyl / CH═CH / H] |  | 5.47 ± 0.22 µM |  |  | −4.40 | Tumor Cell Mean log GI50 ([1]; Table 10): −4.86 |
| CC(C)OC(=O)c1ccc(CCC2=CC(=O)C(Br)=CC2=O)cc1 |  | 4.19 ± 0.07 µM |  |  | −4.48 | Tumor Cell Mean log GI50 ([1]; Table 10): −4.85 |
| O=C(OC12CC3CC(CC(C3)C1)C2)c1ccc(NCc2cc(O)ccc2O)cc1 [Compound 6, 4′-adamantylbenzoate-1′-N-2,5-dihydroxybenzylamine] | 13.6 µM |  | −6.03 | −5.44 |  |  |
| CC(C)OC(=O)c1ccc(NCc2cc(O)ccc2O)cc1Cl [COOCH(CH3)2 / Cl / H, 5′-chloro-4′-isopropylbenzoate-1′-N-2,5-dihydroxybenzylamine] | 1.22 µM |  | −5.46 | −5.65 |  |  |
| CC(C)OC(=O)c1ccc(CCC2=CC(=O)C=CC2=O)cc1 [COOCH(CH3)2 / 2,5-quinoyl / CH2—CH2 / H] |  | 5.26 ± 2.09 µM |  |  | −4.58 | Tumor Cell Mean log GI50 ([1]; Table 10): −5.05 |
| COC(=O)c1ccc(CCC2=CC(=O)C(Br)=CC2=O)cc1 |  | 3.52 ± 0.16 µM |  |  | −4.43 | GI50 ([1]; Table 10): 14.1 µM |
| COC(=O)c1ccc(CCc2cc(O)c(Br)cc2O)cc1 |  | 4.42 ± 0.24 µM |  |  | −4.54 | GI50 ([1]; Table 10): 12.3 µM |

Now from value to molecule, other results behind:

| IC50 (p210^bcr-abl; Table 8, mean+S.E.) | IC50 (p210^bcr-abl; Table 10, mean ± S.E.) | Structure (SMILES) | Tumor Cell Mean log GI50 ([1]; Table 8) | Tumor Cell Mean log TGI ([1]; Table 8) | Tumor Cell Mean log TGI ([1]; Table 10) | further results |
| --- | --- | --- | --- | --- | --- | --- |
| 11.1 µM |  | CC(C)C(OC(=O)c1ccc(NCc2cc(O)ccc2O)cc1)C(C)C [COOCH[CH(CH3)2]2 / H / H] | −5.91 | −5.35 |  |  |
| 12.6 µM |  | O=C(OCC12CC3CC(CC(C3)C1)C2)c1ccc(NCc2cc(O)ccc2O)cc1 [Compound 7, 4′-4′-adamantylmethylbenzoate-1′-N-2,5-dihydroxybenzylamine] | −5.89 | −5.09 |  |  |
| 4.45 µM |  | CC(C)OC(=O)c1ccc(NCc2cc(O)ccc2O)cc1 [COOCH(CH3)2 / H / H] | −5.52 | −4.84 |  |  |
| 7.72 µM |  | CC(C)(C)OC(=O)c1ccc(NCc2cc(O)ccc2O)cc1 [COOC(CH3)3 / H / H, 4′-t-butylbenzoate-1′-N-2,5-dihydroxybenzylamine] | −5.66 | −5.03 |  |  |
| 36.6 µM |  | O=C(OCc1ccccc1)c1ccc(NCc2cc(O)ccc2O)cc1 [COOCH2Ph / H / H] | −5.85 | −5.35 |  |  |
